Assay [1] has as its system Plasmodium vivax liver stage (primary human hepatocyte culture). Summed up: (§1)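 P. vivax sporozoites from mosquitoes fed on patient isolates were used to infect primary human hepatocytes, which received compounds at 8 points (10 uM[…]) or 12 points in duplicate (50 uM–280 pM). High-content imaging of immunostained wells recorded schizont growth area, hypnozoite count and hepatic nuclei relative to DMSO and positive-control wells. Potency, maximum inhibition and nuclei-loss cytotoxicity were fitted in CDD Vault from the best-quality run, omitting toxic bell-shaped points.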

Assay [2] concerns Plasmodium cynomolgi Berok K4 asexual blood stage. Briefly: EC50 asexual blood stage growth. Put shortly:
(§2)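 Asexual blood-stage P. cynomolgi and P. falciparum were exposed to reference compounds in SYBR Green proliferation assays. For P. cynomolgi, threefold serial dilutions in DMSO gave ten points, which were dispensed acoustically at 500-fold dilution to a top dose of 10 µM, with vehicle and positive-control wells and media containing 0.5% AlbuMAX or 20% macaque serum. P. falciparum was assayed over 72 h in AlbuMAX-containing medium. Each EC50 is the geometric mean across independent experiments.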

The test system of assay [3] is Plasmodium falciparum 3D7 asexual blood stage. Briefly: EC50 asexual blood stage growth. The note with it: serum: 0.5% AlbuMAX. Summed up:
as §2

Assay [4] concerns primary human hepatocytes. Nature of the assay: CC20 hepatic nuclei (20% reduction); higher = less toxic. Summed up: as §1
The test system of assay [5] is Plasmodium vivax liver stage (primary human hepatocyte culture). Briefly: maximum inhibition of schizont net growth area; higher = more active. Put shortly: as §1
Setting [6] is: P. vivax isolate: IVS16-38, hepatocyte lot: PDC, assay mode: Prophylactic, 6-day.
[7] abbreviates: P. vivax isolate: Pv923, hepatocyte lot: BGW, assay mode: Radical Cure, 8-day (treatment from day 5 post-infection).
[8] abbreviates: serum: 20% M. fascicularis serum.
The mark [9] stands for this setting: P. vivax isolate: Pv914, hepatocyte lot: BGW, assay mode: Prophylactic, 6-day.
The mark [10] stands for this setting: P. vivax isolate: Pv992, hepatocyte lot: BGW, assay mode: Prophylactic, 6-day.
The mark [11] stands for this setting: P. vivax isolate: Pv360, hepatocyte lot: UBV, assay mode: Radical Cure, 8-day (treatment from day 5 post-infection).
Where [12] appears, read: P. vivax isolate: Pv796, hepatocyte lot: BGW, assay mode: Radical Cure, 8-day (treatment from day 5 post-infection).
Setting [13] is: P. vivax isolate: Pv557, hepatocyte lot: UBV, assay mode: Radical Cure, 8-day (treatment from day 5 post-infection).

For `Cc1cc(Nc2ccc(S(F)(F)(F)(F)F)cc2)n2nc(C(C)(F)F)nc2n1` [DSM265], the results for the EC50 hypnozoite quantity in assay [1] (setting [6]) and in assay [1] (setting [7]) were over 3070 nM and over 10000 nM, respectively. The “EC50 schizont net growth area” value is 126 nM in assay [1] (setting [6]) and over 1110 nM in assay [1] (setting [7]). The “EC50 asexual blood stage growth” value in assay [2] (serum: 0.5% AlbuMAX) was found to be 6.4 nM; in assay [2] (setting [8]) it was 62.5 nM; in assay [3], 11 nM. In addition, the results for the CC20 hepatic nuclei in assay [4] (setting [6]) and in assay [4] (setting [7]) were over 3070 nM and over 10000 nM, respectively. Further, the maximum inhibition in assay [5] (setting [6]) came out at 100%; in assay [5] (setting [7]), 69.4%.
In assay [1] (setting [9]), `COc1cc2[nH]c(C)c(-c3ccc(Oc4ccc(OC(F)(F)F)cc4)cc3)c(=O)c2cc1Cl` [ELQ-300] showed an EC50 hypnozoite quantity of over 1110 nM. Moreover, the “EC50 schizont net growth area” value in assay [1] (setting [9]) came to 57.6 nM. Moreover, the “EC50 asexual blood stage growth” value in assay [2] (serum: 0.5% AlbuMAX) was 42 nM; in assay [2] (setting [8]), 3.3 nM; in assay [3], 47.1 nM. Further, the CC20 hepatic nuclei in assay [4] (setting [9]) was over 10000 nM. Moreover, the maximum inhibition in assay [5] (setting [9]) came out at 97.9%.
In assay [1] (setting [9]), `CCNCc1cc(Nc2ccnc3cc(Cl)ccc23)ccc1O` [N-Desethylamodiaquine] had an EC50 hypnozoite quantity of over 10000 nM. In addition, the “EC50 schizont net growth area” value in assay [1] (setting [9]) is over 3330 nM. Further, the entries for the “EC50 asexual blood stage growth” value in assay [2] (serum: 0.5% AlbuMAX), in assay [2] (setting [8]) and in assay [3] were 22.2 nM, 11.5 nM and 56 nM, respectively. The compound also returned a CC20 hepatic nuclei in assay [4] (setting [9]) of over 10000 nM. Moreover, the maximum inhibition in assay [5] (setting [9]) is 74.5%.
As for `COc1cc(NC(C)CCCN)c2nccc(C)c2c1Oc1ccc(Cl)c(Cl)c1` (centres undefined) [NPC-1161B], the EC50 hypnozoite quantity in assay [1] (setting [9]) is over 10000 nM. In assay [1] (setting [9]), the “EC50 schizont net growth area” value was over 370 nM. Further, the results for the “EC50 asexual blood stage growth” value in assay [2] (serum: 0.5% AlbuMAX), in assay [2] (setting [8]) and in assay [3] were 2760 nM, 8200 nM and 2860 nM, respectively. In assay [4] (setting [9]), this compound came in with a CC20 hepatic nuclei of over 10000 nM. Besides, the maximum inhibition in assay [5] (setting [9]) was found to be 91.9%.
In assay [1] (setting [9]), `CCc1nc(N)nc(N)c1OCCCOc1ccccc1CCC(=O)O` [P218] registered an EC50 hypnozoite quantity of over 10000 nM. Further, in assay [1] (setting [9]), the “EC50 schizont net growth area” value came to 51.1 nM. Besides, the “EC50 asexual blood stage growth” value in assay [2] (serum: 0.5% AlbuMAX) turned out to be 0.7 nM; in assay [2] (setting [8]), 1.7 nM; in assay [3], 2 nM. Further, the CC20 hepatic nuclei in assay [4] (setting [9]) was over 10000 nM. For the same compound, in assay [5] (setting [9]), the maximum inhibition came out at 101%.
In assay [1] (setting [10]), `CCN(CC)CCCC(C)Nc1cc(OC)cc2cccnc12` (centres undefined) [Pamaquine] came in with an EC50 hypnozoite quantity of over 3330 nM. In addition, in assay [1] (setting [10]), the “EC50 schizont net growth area” value is over 10000 nM. Also, the entries for the “EC50 asexual blood stage growth” value in assay [2] (serum: 0.5% AlbuMAX), in assay [2] (setting [8]) and in assay [3] were 325 nM, 187 nM and 3950 nM, respectively. Also, the CC20 hepatic nuclei in assay [4] (setting [10]) was over 10000 nM. Further, the maximum inhibition in assay [5] (setting [10]) was determined as 61%.
`COc1ccc2nc3cc(Cl)ccc3c(Nc3cc(CN4CCCC4)c(O)c(CN4CCCC4)c3)c2n1` [Pyronaridine] displayed an EC50 hypnozoite quantity in assay [1] (setting [9]) of over 3330 nM. Moreover, the “EC50 schizont net growth area” value in assay [1] (setting [9]) was over 3330 nM. Further, the “EC50 asexual blood stage growth” value in assay [2] (serum: 0.5% AlbuMAX) was found to be 3.5 nM; in assay [2] (setting [8]), 4 nM; in assay [3] it was 5 nM. The compound also registered a CC20 hepatic nuclei in assay [4] (setting [9]) of 7910 nM. Moreover, the maximum inhibition in assay [5] (setting [9]) was determined as 99.4%.
Consider `Clc1ccc2c(N[C@H]3CCCC[C@@H]3Nc3ccnc4cc(Cl)ccc34)ccnc2c1` [Ro 47-7737], for which the EC50 hypnozoite quantity was over 10000 nM in assay [1] (setting [11]) and over 3330 nM in assay [1] (setting [9]). In addition, the “EC50 schizont net growth area” value in assay [1] (setting [11]) and in assay [1] (setting [9]) was over 3330 nM in each case. The “EC50 asexual blood stage growth” value in assay [2] (serum: 0.5% AlbuMAX) amounted to 4.2 nM; in assay [2] (setting [8]), 3.6 nM; in assay [3] it was 2 nM. In addition, the CC20 hepatic nuclei in assay [4] (setting [11]) was over 10000 nM; in assay [4] (setting [9]), over 3330 nM. For the same compound, the maximum inhibition was found to be 70.6% in assay [5] (setting [11]) and 99% in assay [5] (setting [9]).
For `N#Cc1cc(NC(=O)C2c3ccccc3C(=O)N(CC(F)(F)F)C2c2cccnc2)ccc1F` (centres undefined) [SJ733], the EC50 hypnozoite quantity in assay [1] (setting [12]) is over 50000 nM. Further, the “EC50 asexual blood stage growth” value stood at 538 nM in assay [2] (serum: 0.5% AlbuMAX), 293 nM in assay [2] (setting [8]) and 106 nM in assay [3]. The compound also yielded a CC20 hepatic nuclei in assay [4] (setting [12]) of over 50000 nM. Besides, the maximum inhibition in assay [5] (setting [12]) was 56.8%.
`CN(C)[C@@H]1C(O)=C(C(N)=O)C(=O)[C@@]2(O)C(O)=C3C(=O)c4c(O)cccc4[C@@](C)(O)[C@H]3C[C@@H]12` [Tetracycline] displayed an EC50 hypnozoite quantity in assay [1] (setting [9]) of over 10000 nM. Further, the “EC50 asexual blood stage growth” value in assay [2] (serum: 0.5% AlbuMAX), in assay [2] (setting [8]) and in assay [3] was over 10000 nM each time. This compound gave a CC20 hepatic nuclei in assay [4] (setting [9]) of over 10000 nM. In assay [5] (setting [9]), the maximum inhibition was found to be 56.7%.
On to `C=C(NC(=O)C(=C)NC(=O)c1csc(C2=NC3c4csc(n4)C4NC(=O)c5csc(n5)C(C(C)(O)C(C)O)NC(=O)C5CSC(=N5)C(=CC)NC(=O)C(C(C)O)NC(=O)c5csc(n5)C3(CC2)NC(=O)C(C)NC(=O)C(=C)NC(=O)C(C)NC(=O)C(C(C)CC)NC2C=Cc3c(C(C)O)cc(nc3C2O)C(=O)OC4C)n1)C(N)=O` (centres undefined) [Thiostrepton], for which the EC50 hypnozoite quantity in assay [1] (setting [11]) was over 10000 nM; in assay [1] (setting [9]), 4040 nM. The “EC50 schizont net growth area” value is over 3330 nM in assay [1] (setting [11]) and 2390 nM in assay [1] (setting [9]). The “EC50 asexual blood stage growth” value in assay [2] (serum: 0.5% AlbuMAX) was 3930 nM; in assay [2] (setting [8]), 9130 nM; in assay [3], over 10000 nM. Besides, the results for the CC20 hepatic nuclei in assay [4] (setting [11]) and in assay [4] (setting [9]) were over 10000 nM and over 3330 nM, respectively. For the same compound, the values for the maximum inhibition in assay [5] (setting [11]) and in assay [5] (setting [9]) were 80.2% and 99.1%, respectively.
Regarding `CCCCCCC[C@H]1CN[C@H](C(=O)NC(C(C)Cl)C2O[C@H](SC)[C@H](O)[C@@H](O)[C@H]2O)C1` (stereo partly drawn) [Trans-Mirincamycin], the EC50 hypnozoite quantity in assay [1] (setting [9]) was over 10000 nM. The “EC50 asexual blood stage growth” value in assay [2] (serum: 0.5% AlbuMAX), in assay [2] (setting [8]) and in assay [3] was over 10000 nM throughout. Moreover, the CC20 hepatic nuclei in assay [4] (setting [9]) is over 10000 nM. Moreover, the maximum inhibition in assay [5] (setting [9]) amounted to 72.5%.
Consider `Nc1ncc(-c2ccc(C(=O)N3CCNCC3)cc2)nc1-c1ccc(C(F)(F)F)cc1` [UCT943], for which the EC50 hypnozoite quantity in assay [1] (setting [13]) was over 10000 nM; in assay [1] (setting [9]), 4.27 nM. The “EC50 schizont net growth area” value in assay [1] (setting [13]) amounted to 2.38 nM; in assay [1] (setting [9]), 1.75 nM. The “EC50 asexual blood stage growth” value in assay [2] (serum: 0.5% AlbuMAX) came out at 34.4 nM; in assay [2] (setting [8]) it was 20.6 nM; in assay [3], 318 nM. In addition, the CC20 hepatic nuclei in assay [4] (setting [13]) and in assay [4] (setting [9]) was over 10000 nM each time. Further, the values for the maximum inhibition in assay [5] (setting [13]) and in assay [5] (setting [9]) were 101% and 100%, respectively.
